Measured values reported in ChEMBL document CHEMBL5291721, “A preclinical secondary pharmacology resource illuminates target-adverse drug reaction associations of marketed drugs” (Nat Commun, 2023).

Assays:
[1] = biological target: T1, Muscarinic acetylcholine receptor M1 (Homo sapiens, UniProt P11229); assay type: functional
T1 sequence (P11229 whole entry): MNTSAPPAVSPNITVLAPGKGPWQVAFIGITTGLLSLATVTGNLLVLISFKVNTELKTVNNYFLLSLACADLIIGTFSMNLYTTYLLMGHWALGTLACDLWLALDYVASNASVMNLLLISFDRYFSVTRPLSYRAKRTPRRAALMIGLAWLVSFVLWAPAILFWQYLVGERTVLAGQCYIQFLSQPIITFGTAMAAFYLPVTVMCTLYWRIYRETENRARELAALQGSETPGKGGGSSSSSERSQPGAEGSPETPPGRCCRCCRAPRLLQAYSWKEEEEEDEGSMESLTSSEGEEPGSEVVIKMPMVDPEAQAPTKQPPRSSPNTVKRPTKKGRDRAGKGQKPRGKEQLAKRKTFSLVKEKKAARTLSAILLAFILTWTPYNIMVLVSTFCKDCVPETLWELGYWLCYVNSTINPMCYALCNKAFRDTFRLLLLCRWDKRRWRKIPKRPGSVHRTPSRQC

Histamine H1 receptor = Histamine H1 receptor (Homo sapiens, UniProt P35367)
[2] = biological target: T2, Alpha-2B adrenergic receptor (Homo sapiens, UniProt P18089)
T2 sequence (P18089 whole entry): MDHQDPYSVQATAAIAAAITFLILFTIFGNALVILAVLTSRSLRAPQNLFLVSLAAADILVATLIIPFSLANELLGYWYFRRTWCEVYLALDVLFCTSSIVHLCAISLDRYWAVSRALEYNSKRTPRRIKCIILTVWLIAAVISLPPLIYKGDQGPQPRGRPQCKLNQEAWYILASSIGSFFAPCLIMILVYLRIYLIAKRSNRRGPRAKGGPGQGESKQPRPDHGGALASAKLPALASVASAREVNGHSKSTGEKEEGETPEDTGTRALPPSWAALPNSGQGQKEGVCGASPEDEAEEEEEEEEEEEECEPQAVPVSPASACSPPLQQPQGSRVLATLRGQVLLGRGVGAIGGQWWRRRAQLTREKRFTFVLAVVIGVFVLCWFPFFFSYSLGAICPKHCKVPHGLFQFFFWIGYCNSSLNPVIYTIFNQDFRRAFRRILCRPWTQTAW

Mu-type opioid receptor = Mu-type opioid receptor (Homo sapiens, UniProt P35372); assay: biochemical; assay type: functional
Estrogen receptor = biological target: T3, Estrogen receptor (Homo sapiens, UniProt P03372)
T3 sequence (P03372 whole entry): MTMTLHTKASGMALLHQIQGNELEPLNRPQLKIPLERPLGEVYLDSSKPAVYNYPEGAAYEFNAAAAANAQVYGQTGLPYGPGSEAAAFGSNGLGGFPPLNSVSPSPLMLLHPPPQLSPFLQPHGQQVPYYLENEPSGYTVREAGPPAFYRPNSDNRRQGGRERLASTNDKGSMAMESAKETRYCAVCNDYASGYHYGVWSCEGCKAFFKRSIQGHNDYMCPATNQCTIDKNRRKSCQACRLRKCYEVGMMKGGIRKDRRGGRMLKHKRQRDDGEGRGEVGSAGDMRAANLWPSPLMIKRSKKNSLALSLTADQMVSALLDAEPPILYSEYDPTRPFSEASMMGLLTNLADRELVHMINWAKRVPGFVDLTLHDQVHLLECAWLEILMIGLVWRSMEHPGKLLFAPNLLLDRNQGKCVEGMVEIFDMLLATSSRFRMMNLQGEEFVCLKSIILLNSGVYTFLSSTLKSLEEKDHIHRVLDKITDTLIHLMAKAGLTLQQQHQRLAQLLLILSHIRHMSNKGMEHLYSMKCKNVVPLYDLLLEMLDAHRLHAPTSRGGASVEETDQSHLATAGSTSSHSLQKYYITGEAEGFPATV

B1 bradykinin receptor = biological target: T4, B1 bradykinin receptor (Homo sapiens, UniProt P46663)
T4 sequence (P46663 whole entry): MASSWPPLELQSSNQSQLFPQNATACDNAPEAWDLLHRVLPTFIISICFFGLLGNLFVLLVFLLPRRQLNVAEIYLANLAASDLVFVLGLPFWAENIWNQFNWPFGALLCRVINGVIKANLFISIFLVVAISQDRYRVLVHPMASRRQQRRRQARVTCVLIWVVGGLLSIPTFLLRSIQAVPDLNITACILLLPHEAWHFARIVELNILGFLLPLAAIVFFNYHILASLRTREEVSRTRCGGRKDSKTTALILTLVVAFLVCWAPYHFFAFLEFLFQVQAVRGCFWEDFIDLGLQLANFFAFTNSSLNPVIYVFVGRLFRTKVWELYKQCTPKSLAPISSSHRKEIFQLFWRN

[3] = biological target: T5, Neuropeptide Y receptor type 2 (Homo sapiens, UniProt P49146)
T5 sequence (P49146 whole entry): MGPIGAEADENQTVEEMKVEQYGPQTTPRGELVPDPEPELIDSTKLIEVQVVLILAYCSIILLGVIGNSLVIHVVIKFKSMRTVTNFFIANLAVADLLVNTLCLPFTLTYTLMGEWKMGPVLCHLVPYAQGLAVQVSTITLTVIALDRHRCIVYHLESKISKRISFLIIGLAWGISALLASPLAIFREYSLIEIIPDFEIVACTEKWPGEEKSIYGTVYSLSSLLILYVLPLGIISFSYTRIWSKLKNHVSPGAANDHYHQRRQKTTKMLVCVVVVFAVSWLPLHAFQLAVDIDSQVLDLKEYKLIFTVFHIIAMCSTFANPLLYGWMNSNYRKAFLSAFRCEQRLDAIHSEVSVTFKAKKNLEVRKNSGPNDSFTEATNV

[4] = biological target: T6, Endothelin receptor type B (Homo sapiens, UniProt P24530)
T6 sequence (P24530 whole entry): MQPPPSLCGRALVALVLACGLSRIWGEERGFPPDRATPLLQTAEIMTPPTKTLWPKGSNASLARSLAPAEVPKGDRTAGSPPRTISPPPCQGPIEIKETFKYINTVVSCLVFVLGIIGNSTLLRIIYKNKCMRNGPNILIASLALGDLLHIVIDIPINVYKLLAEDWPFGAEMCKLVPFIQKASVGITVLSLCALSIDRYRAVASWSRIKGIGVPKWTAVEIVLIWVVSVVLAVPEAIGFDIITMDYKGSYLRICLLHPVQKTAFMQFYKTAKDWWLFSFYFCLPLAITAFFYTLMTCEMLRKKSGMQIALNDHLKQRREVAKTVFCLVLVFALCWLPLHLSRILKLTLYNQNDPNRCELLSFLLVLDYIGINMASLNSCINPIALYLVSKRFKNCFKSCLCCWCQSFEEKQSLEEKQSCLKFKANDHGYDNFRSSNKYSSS

[5] = biological target: Gamma-aminobutyric acid receptor subunit alpha-1/alpha-2/beta-2/gamma-2 (Homo sapiens, UniProt P14867+P18507+P47869+P47870); assay type: functional, cell-based
Also: assay procedure not described here.

Chain of Mu-type opioid receptor (P35372 whole entry): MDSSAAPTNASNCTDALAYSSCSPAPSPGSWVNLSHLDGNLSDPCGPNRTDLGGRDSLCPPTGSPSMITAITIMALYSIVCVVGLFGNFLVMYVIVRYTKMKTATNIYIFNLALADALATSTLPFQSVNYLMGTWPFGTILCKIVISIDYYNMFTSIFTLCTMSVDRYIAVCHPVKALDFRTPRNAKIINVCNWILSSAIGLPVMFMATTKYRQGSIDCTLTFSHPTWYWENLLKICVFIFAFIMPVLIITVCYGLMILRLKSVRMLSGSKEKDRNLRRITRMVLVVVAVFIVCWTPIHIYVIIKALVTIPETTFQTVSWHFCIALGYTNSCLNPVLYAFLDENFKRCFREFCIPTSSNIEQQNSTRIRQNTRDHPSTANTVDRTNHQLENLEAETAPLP
Chain of Histamine H1 receptor (P35367 whole entry): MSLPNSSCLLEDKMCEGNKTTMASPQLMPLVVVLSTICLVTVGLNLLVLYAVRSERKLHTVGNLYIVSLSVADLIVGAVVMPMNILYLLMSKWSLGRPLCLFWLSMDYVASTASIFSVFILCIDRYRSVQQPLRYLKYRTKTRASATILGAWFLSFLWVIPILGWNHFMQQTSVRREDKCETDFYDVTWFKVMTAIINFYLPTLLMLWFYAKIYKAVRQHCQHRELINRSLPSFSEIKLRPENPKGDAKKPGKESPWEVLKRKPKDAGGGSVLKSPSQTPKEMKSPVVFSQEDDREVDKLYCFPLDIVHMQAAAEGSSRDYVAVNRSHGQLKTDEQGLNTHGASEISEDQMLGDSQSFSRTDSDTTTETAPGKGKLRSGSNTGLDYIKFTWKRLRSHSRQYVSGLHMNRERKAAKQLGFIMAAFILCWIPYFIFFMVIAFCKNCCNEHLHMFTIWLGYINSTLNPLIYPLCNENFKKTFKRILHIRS
Chain of Gamma-aminobutyric acid receptor subunit alpha-1/alpha-2/beta-2/gamma-2 (P14867 whole entry): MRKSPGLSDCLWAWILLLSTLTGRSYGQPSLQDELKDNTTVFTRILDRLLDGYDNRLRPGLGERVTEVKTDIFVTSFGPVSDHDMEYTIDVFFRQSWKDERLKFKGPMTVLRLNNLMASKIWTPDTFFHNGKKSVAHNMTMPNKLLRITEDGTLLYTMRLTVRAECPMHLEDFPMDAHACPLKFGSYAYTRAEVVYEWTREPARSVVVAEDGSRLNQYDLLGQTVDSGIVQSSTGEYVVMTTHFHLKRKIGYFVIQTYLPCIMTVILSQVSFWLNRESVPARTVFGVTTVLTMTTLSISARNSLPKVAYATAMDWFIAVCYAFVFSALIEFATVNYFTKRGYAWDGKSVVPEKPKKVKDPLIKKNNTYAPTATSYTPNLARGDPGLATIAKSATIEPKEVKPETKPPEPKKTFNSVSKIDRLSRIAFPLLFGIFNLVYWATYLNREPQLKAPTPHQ
Chain of Gamma-aminobutyric acid receptor subunit alpha-1/alpha-2/beta-2/gamma-2 (P47870 whole entry): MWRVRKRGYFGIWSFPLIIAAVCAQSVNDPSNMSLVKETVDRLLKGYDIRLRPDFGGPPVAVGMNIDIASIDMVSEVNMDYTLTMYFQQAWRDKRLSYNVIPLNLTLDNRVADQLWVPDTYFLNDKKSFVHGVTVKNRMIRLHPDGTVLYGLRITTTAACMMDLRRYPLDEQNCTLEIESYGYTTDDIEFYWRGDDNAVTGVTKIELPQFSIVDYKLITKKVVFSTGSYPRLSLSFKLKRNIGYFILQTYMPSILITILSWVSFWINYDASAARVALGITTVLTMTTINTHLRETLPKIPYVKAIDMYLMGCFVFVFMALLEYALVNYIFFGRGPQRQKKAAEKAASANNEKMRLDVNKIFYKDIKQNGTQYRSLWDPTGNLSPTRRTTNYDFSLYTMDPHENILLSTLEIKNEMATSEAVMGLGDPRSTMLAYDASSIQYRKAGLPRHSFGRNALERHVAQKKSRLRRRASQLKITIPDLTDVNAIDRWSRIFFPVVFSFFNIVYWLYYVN
Chain of Gamma-aminobutyric acid receptor subunit alpha-1/alpha-2/beta-2/gamma-2 (P18507 whole entry): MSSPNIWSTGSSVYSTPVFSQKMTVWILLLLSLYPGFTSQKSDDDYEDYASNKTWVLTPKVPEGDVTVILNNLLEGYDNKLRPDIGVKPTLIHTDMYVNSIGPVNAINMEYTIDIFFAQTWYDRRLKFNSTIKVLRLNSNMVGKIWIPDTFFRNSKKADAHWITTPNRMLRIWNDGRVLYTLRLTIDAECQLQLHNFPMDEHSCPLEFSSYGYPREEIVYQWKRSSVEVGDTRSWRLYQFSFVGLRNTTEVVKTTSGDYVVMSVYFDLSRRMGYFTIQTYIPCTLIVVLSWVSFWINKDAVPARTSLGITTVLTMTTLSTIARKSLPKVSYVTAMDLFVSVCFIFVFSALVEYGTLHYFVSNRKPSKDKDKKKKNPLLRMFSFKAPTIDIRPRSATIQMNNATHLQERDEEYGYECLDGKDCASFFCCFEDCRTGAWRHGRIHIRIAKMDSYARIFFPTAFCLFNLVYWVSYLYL
Chain of Gamma-aminobutyric acid receptor subunit alpha-1/alpha-2/beta-2/gamma-2 (P47869 whole entry): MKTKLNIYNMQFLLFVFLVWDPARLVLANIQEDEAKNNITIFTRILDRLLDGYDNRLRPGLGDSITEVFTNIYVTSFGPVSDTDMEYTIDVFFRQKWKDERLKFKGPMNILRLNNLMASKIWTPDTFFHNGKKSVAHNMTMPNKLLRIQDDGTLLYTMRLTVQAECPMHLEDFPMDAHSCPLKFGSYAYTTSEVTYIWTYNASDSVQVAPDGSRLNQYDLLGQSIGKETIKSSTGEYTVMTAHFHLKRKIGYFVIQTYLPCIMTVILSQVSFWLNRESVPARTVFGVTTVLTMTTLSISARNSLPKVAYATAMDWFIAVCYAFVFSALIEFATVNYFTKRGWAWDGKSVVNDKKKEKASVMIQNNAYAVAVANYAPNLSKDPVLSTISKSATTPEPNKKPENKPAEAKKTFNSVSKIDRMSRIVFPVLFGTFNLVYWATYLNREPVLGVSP

Compound	AC50 [1]	AC50 (Histamine H1 receptor)	AC50 [2]	AC50 (Mu-type opioid receptor)	AC50 (Estrogen receptor)	AC50 (B1 bradykinin receptor)	AC50 [3]	AC50 [4]	AC50 [5]
CC(=O)Nc1ccc(CC(=O)O)cc1 [ACTARIT]	> 30 µM	> 30 µM	> 30 µM	> 30 µM	> 30 µM	–	–	–	–
CC(C(=O)O)c1ccc2oc(-c3ccc(Cl)cc3)nc2c1 (centres undefined) [BENOXAPROFEN]	–	–	–	> 30 µM	> 30 µM	–	–	–	–
CC=CC1=C(C(=O)O)N2C(=O)[C@@H](NC(=O)[C@H](N)c3ccc(O)cc3)[C@H]2SC1 [CEFPROZIL]	> 30 µM	> 30 µM	> 30 µM	> 30 µM	> 30 µM	–	–	–	–
CCCNC(=O)NS(=O)(=O)c1ccc(Cl)cc1 [CHLORPROPAMIDE]	–	–	–	–	> 30 µM	> 30 µM	> 30 µM	> 30 µM	–
CCC(=O)O[C@]1(C(=O)CCl)[C@@H](C)C[C@H]2[C@@H]3CCC4=CC(=O)C=C[C@]4(C)[C@@]3(F)[C@@H](O)C[C@@]21C [CLOBETASOL PROPIONATE]	–	–	–	> 30 µM	–	–	–	–	–
Cc1nc(Nc2ncc(C(=O)Nc3c(C)cccc3Cl)s2)cc(N2CCN(CCO)CC2)n1 [DASATINIB]	> 30 µM	> 30 µM	> 30 µM	–	–	> 10 µM	> 10 µM	> 10 µM	–
CC(C)Cc1ccc([C@H](C)C(=O)O)cc1 [DEXIBUPROFEN]	–	–	–	–	–	–	–	–	> 30 µM
O=C(O)Cc1ccccc1Nc1c(Cl)cccc1Cl [DICLOFENAC]	–	–	–	–	–	> 30 µM	> 30 µM	> 30 µM	–
O=C(O)Cc1ccccc1Oc1ccc(Cl)cc1Cl [FENCLOFENAC]	> 10 µM	> 10 µM	> 10 µM	–	> 30 µM	> 30 µM	> 30 µM	> 30 µM	–
Cc1ccc(C)c(OCCCC(C)(C)C(=O)O)c1 [GEMFIBROZIL]	–	–	–	–	> 30 µM	> 30 µM	> 30 µM	> 30 µM	–
COc1ccccc1OC1(C)OC(=O)c2ccccc2O1 (centres undefined) [GUAIMESAL]	–	–	–	–	> 30 µM	–	–	–	–
CCCCCCCN(CC)CCCC(O)c1ccc(NS(C)(=O)=O)cc1 (centres undefined) [IBUTILIDE]	> 30 µM	> 30 µM	18 µM	> 30 µM	–	–	–	–	–
CC[C@H](C)C(=O)O[C@H]1C[C@@H](C)C=C2C=C[C@H](C)[C@H](CC[C@@H]3C[C@@H](O)CC(=O)O3)[C@H]21 [LOVASTATIN]	–	–	–	–	> 30 µM	> 30 µM	> 30 µM	> 30 µM	–
CC[C@@H](CO)NC(=O)[C@@H]1C=C2c3cccc4c3c(cn4C)C[C@H]2N(C)C1 [METHYSERGIDE]	–	–	–	–	> 10 µM	> 30 µM	> 30 µM	> 30 µM	–
CNC(=C[N+](=O)[O-])NCCSCc1csc(CN(C)C)n1 [NIZATIDINE]	–	–	–	> 30 µM	–	–	–	–	–
CC(CN1c2ccccc2Sc2ccccc21)N(C)C (centres undefined) [PROMETHAZINE]	–	–	–	–	–	> 30 µM	> 30 µM	> 30 µM	–
CCCc1cc(=O)[nH]c(=S)[nH]1 [PROPYLTHIOURACIL]	–	–	–	–	> 10 µM	–	–	–	–
Cn1cc(C(=O)[C@@H]2CCc3nc[nH]c3C2)c2ccccc21 [RAMOSETRON]	> 30 µM	> 30 µM	0.34 µM	> 30 µM	> 30 µM	–	–	–	–
CN(CCOc1ccc(CC2SC(=O)NC2=O)cc1)c1ccccn1 (centres undefined) [ROSIGLITAZONE]	–	–	–	> 30 µM	> 30 µM	> 30 µM	> 30 µM	> 30 µM	–
S=P(N1CC1)(N1CC1)N1CC1 [THIOTEPA]	–	–	–	–	–	–	–	–	> 30 µM
CC(C)C[C@H](NC(=O)[C@@H](O)[C@H](N)Cc1ccccc1)C(=O)O [UBENIMEX]	–	–	–	> 30 µM	> 30 µM	–	–	–	–
CC(C)[C@H](N)C(=O)OCCOCn1cnc2c(=O)[nH]c(N)nc21 [VALACYCLOVIR]	–	–	–	–	> 30 µM	> 30 µM	> 30 µM	> 30 µM	–
COc1cc(C(=O)NS(=O)(=O)c2ccccc2C)ccc1Cc1cn(C)c2ccc(NC(=O)OC3CCCC3)cc12 [ZAFIRLUKAST]	–	–	–	–	> 30 µM	–	–	–	–
O=C1Cc2cc(CCN3CCN(c4nsc5ccccc45)CC3)c(Cl)cc2N1 [ZIPRASIDONE]	> 10 µM	–	–	–	> 30 µM	> 30 µM	> 30 µM	> 30 µM	–
